Data from US7884123B2, “Substituted thieno[2,3-c]pyrazoles, process for preparing them, compositions containing them, and use thereof” (Aventis Pharma S.A., priority 2004, dated 2011).
Counter-ions that a name gives are not always drawn.

Experiments:
Aurora2 = biological target: T1, Aurora2 (Homo sapiens, UniProt O14965); assay: Aurora2 kinase radioactivity scintillation test using nickel chelate; format: biochemical
T1 construct: A complete recombinant Aurora2 enzyme, the N-terminal of which was labeled with histidine, was expressed in E. coli; His tag (N); made in house; host or cells: E. coli
T1 sequence (O14965 1-403): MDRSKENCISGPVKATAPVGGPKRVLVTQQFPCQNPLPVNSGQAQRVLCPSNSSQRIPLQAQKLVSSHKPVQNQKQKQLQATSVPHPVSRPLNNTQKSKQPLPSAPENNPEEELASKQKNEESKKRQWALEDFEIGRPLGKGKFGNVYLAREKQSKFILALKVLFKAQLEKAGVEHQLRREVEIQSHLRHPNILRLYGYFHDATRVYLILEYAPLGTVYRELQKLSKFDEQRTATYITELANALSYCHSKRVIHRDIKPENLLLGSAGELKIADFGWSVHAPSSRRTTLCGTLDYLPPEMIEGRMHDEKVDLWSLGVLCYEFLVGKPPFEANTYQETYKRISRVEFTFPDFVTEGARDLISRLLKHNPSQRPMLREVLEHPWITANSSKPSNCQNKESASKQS
Description: The inhibitory effect of the compounds toward the kinase Aurora2 is determined via a radioactivity scintillation test using nickel chelate.
A complete recombinant Aurora2 enzyme, the N-terminal of which was labeled with histidine, was expressed in E. coli and purified to a quality close to homogeneity.
The C-terminal fragment (Q1687-H2101) of an NuMA (Nuclear protein which is associated with the Mitotic Apparatus) expressed in E. coli, and the N-terminal end of which was labeled with histidine, was purified by nickel chelate chromatography and used as substrate in the Aurora2 kinase test.
To determine the kinase activity, the substrate NuMA is equilibrated by chromatography on a PD10 Pharmacia column, in a buffer (50 mM Tris-HCl, pH 7.5, 50 mM NaCl, 10 mM MgCl2) supplemented with 10% (v/v) of glycerol and 0.05% (w/v) of NP40.
The kinase activity of Aurora2 is measured by scintillation with nickel chelate (New England Nuclear, SMP107 model). Each well contains 100 μl of the following solution: 0.02 μM of Aurora2; 0.5 μM of NuMA substrate; 1 μM of ATP supplemented with 0.5 μCi of ATP-[^33P]. The solutions are incubated for 30 minutes at 37° C. The test buffer is then removed and the wells are rinsed twice with 300 μl of kinase buffer. The radioactivity is measured in each well using a Packard Model Top Count NXT machine.
The background noise is deduced by measuring radioactivity measured in duplicate in wells containing the radioactive ATP alone containing buffered kinase treated in the same manner as for the other samples.
The activity of the control is determined by measuring in duplicate the radioactivity in the complete test mixture (ATP, Aurora2 and substrate NuMA), in the absence of test compound.
The inhibition of the activity of Aurora2 with a compound of the invention is expressed as a percentage of inhibition of the control activity in the absence of test compound. Staurosporin is added to each plate as inhibition control.
The activity of the products was determined by measuring the inhibition of Aurora2 activity.

CDK2/cycline E = biological target: T2, CDK2/cycline E (Homo sapiens, UniProt P24941); assay: CDK2/cyclineE Flashplate test in 96-well format; format: biochemical
T2 construct: made in house; host or cells: Sf21 insect cells (baculovirus coinfection)
Description: Purification of the CDK2/cyclineE-(His)6 Complex by IMAC (Immobilized Metal Affinity Chromatography):
Two recombinant baculoviruses bearing the human sequences coding, respectively, for CDK2 and cyclineE (the latter bearing a C-terminal hexahistidine tag) are used to coinfect Sf21 insect cells. Two to three days after the start of coinfection, the cells are harvested by centrifugation and then stored at −40° C. until the time of use. After thawing and mechanical lysis of the cells, the complex present in the lysis supernatant is purified by affinity chromatography on nickel (IMAC), and stored at −80° C.
CDK2/cyclineE Flashplate Test in 96-Well Format.
A format in streptavidin-coated 96-well plates is used to test the activity of the compounds on the kinase activity of CDK2/cycline E.
To perform this test, the biotinylated peptide substrate, a fragment of the protein pRb (biotinyl-[…]—OH) (SEQ ID NO: 1), is dissolved at a concentration of 1 mM in kinase buffer (HEPES/NaOH 50 mM, NaCl 1 mM, MgCl2 5 mM, pH 7.5) in order to constitute a stock solution stored at −20° C. in the form of 110 μL aliquots. On the day of the experiment, an aliquot of this solution is thawed and diluted in kinase buffer containing 1 mM of dithiothreitol, added to the buffer extemporaneously, in order to obtain a concentration of 14.3 μM. 70 μL of this solution are added to each well of the Flashplate in order to obtain a final substrate concentration of 10 μM during the enzymatic reaction performed in a final volume of the reaction medium of 100 μL (cf. below).
Intermediate dilutions of inhibitors (products of the invention) at various concentrations are prepared in DMSO from stock solutions at 10 mM in separate tubes. […]
When the incubation is complete, the plate is washed three times with 300 μL per well of PBS (phosphate-buffered saline, pH=7.4, without calcium or magnesium, reference 10010-015, Gibco BRL). The incorporation of ^33P to the peptide is quantified by scintillation counting with a Packard Topcount.NXT machine. […]

human Tie2 = biological target: T3, human Tie2 (Homo sapiens, UniProt Q02763); assay: Test of phosphorylation of PLC with Tie2 (GST-Tie2); format: biochemical
T3 construct: amino acids of the intracellular domain 776-1124; made in house; host or cells: baculovirus expression (pFastBacGT vector)
Description: The coding sequence of human Tie2 corresponding to the amino acids of the intracellular domain 776-1124 was generated by PCR using the cDNA isolated from a human placenta as a model. This sequence was introduced into a pFastBacGT baculovirus expression vector in the form of a GST fusion protein.
The inhibitory effect of the molecules is determined in a test of phosphorylation of PLC with Tie2 in the presence of GST-Tie2 purified to about 80% homogeneity. The substrate is composed of the SH2-SH3 fragments of PLC expressed in the form of a GST fusion protein.
The kinase activity of Tie2 is measured in a MOPS 20 mM pH 7.2 buffer, containing 10 mM MgCl2, 10 mM MnCl2, 1 mM DTT, 10 mM of glycerophosphate. In a 96-well FlashPlate plate maintained on ice, a reaction mixture is deposited, composed of 70 μL of kinase buffer containing 100 ng of enzyme GST-Tie2 per well. Next, 10 μL of the test molecule diluted in DMSO to a maximum concentration of 10% are added. For a given concentration, each measurement is performed four times. The reaction is initiated by adding 20 μL of solution containing 2 μg of GST-PLC, 2 μm of cold ATP and 1 μCi of ^33P [ATP]. […] The radioactivity is measured on a MicroBeta1450 Wallac.
The inhibition of the Tie2 activity is calculated and expressed as a percentage of inhibition relative to the control activity determined in the absence of compound.

T3 sequence (Q02763 776-1124): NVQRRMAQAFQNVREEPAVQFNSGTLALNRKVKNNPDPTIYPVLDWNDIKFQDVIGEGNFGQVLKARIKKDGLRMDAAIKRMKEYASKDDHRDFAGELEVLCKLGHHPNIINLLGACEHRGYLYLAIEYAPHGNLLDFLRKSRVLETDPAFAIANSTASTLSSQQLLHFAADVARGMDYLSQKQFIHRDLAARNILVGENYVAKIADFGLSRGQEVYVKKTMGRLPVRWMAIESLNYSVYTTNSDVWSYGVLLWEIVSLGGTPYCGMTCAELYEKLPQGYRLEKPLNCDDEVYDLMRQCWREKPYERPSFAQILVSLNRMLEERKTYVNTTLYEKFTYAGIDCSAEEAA

O=C(NOc1ccccc1)c1cc2c(-c3cc4ccccc4[nH]3)n[nH]c2s1 [Example 1, 3-(1H-indol-2-yl)-1H-thieno[2,3-c]pyrazole-5-(N-phenoxycarboxamide)]
IC50 (Aurora2): < 50 nM
IC50 (CDK2/cycline E): < 100 nM
melting point: 171 °C

O=C(NOc1ccccc1)c1cc2c(/C=C/c3ccccc3)n[nH]c2s1 [Example 2]
IC50 (Aurora2): < 50 nM
IC50 (CDK2/cycline E): 522 nM
melting point: 142 °C

O=C(Nc1n[nH]c2sc(C(=O)NOc3ccccc3)cc12)c1cccs1 [Example 3, 3-[(thiophene-2-carbonyl)amino]-1H-thieno[2,3-c]pyrazole-5-(N-phenoxycarboxamide)hydrochloride]
IC50 (Aurora2): < 50 nM
IC50 (CDK2/cycline E): < 500 nM
IC50 (human Tie2): < 500 nM
